Measured values from patent US20090318351A1, “METHOD OF TREATING ACUTE ST-ELEVATION MYOCARDIAL INFARCTION WITH A DELTA PKC ANTAGONIST” (priority 2008, published 2009).

experiment: Plasma stability of capped peptides (KAI-9706 modified at amino and carboxy termini); conditions: rat
Procedure: Plasma stability of capped peptides was compared. KAI-9706 was modified step-wise at its amino and carboxy termini. Plasma stability as measured by the percent of peptide composition remaining after 15 minutes.

First: CC[C@H](C)[C@H](NC(=O)[C@@H]1CCCN1C(=O)[C@H](C)NC(=O)[C@H](CC(=O)O)NC(=O)[C@H](Cc1c[nH]cn1)NC(=O)[C@H](CSSC[C@H](NC(C)=O)C(=O)N[C@@H](Cc1ccc(O)cc1)C(=O)NCC(=O)N[C@@H](CCCNC(=N)N)C(=O)N[C@@H](CCCCN)C(=O)N[C@@H](CCCCN)C(=O)N[C@@H](CCCNC(=N)N)C(=O)N[C@@H](CCCNC(=N)N)C(=O)N[C@@H](CCC(N)=O)C(=O)N[C@@H](CCCNC(=N)N)C(=O)N[C@@H](CCCNC(=N)N)C(=O)N[C@@H](CCCNC(=N)N)C(N)=O)NC(C)=O)C(=O)NCC(=O)N[C@@H](Cc1ccc(O)cc1)C(=O)N[C@@H](CC(=O)O)C(N)=O [KAI-9706 carrier Ac—NH2 cargo Ac—NH2]
Second: CC[C@H](C)[C@H](NC(=O)[C@@H]1CCCN1C(=O)[C@H](C)NC(=O)[C@H](CC(=O)O)NC(=O)[C@H](Cc1c[nH]cn1)NC(=O)[C@H](CSSC[C@H](NC(C)=O)C(=O)N[C@@H](Cc1ccc(O)cc1)C(=O)NCC(=O)N[C@@H](CCCNC(=N)N)C(=O)N[C@@H](CCCCN)C(=O)N[C@@H](CCCCN)C(=O)N[C@@H](CCCNC(=N)N)C(=O)N[C@@H](CCCNC(=N)N)C(=O)N[C@@H](CCC(N)=O)C(=O)N[C@@H](CCCNC(=N)N)C(=O)N[C@@H](CCCNC(=N)N)C(=O)N[C@@H](CCCNC(=N)N)C(N)=O)NC(C)=O)C(=O)NCC(=O)N[C@@H](Cc1ccc(O)cc1)C(=O)N[C@@H](CC(=O)O)C(=O)O [KAI-9706 carrier Ac—NH2 cargo Ac—OH]
The remaining at 0.25 h of the first is lower: 90% for the first, 93% for the second.

First: CC[C@H](C)[C@H](NC(=O)[C@@H]1CCCN1C(=O)[C@H](C)NC(=O)[C@H](CC(=O)O)NC(=O)[C@H](Cc1c[nH]cn1)NC(=O)[C@@H](N)CSSC[C@H](NC(C)=O)C(=O)N[C@@H](Cc1ccc(O)cc1)C(=O)NCC(=O)N[C@@H](CCCNC(=N)N)C(=O)N[C@@H](CCCCN)C(=O)N[C@@H](CCCCN)C(=O)N[C@@H](CCCNC(=N)N)C(=O)N[C@@H](CCCNC(=N)N)C(=O)N[C@@H](CCC(N)=O)C(=O)N[C@@H](CCCNC(=N)N)C(=O)N[C@@H](CCCNC(=N)N)C(=O)N[C@@H](CCCNC(=N)N)C(N)=O)C(=O)NCC(=O)N[C@@H](Cc1ccc(O)cc1)C(=O)N[C@@H](CC(=O)O)C(N)=O [KAI-9706 carrier Ac—NH2 cargo H—NH2]
Second: CC[C@H](C)[C@H](NC(=O)[C@@H]1CCCN1C(=O)[C@H](C)NC(=O)[C@H](CC(=O)O)NC(=O)[C@H](Cc1c[nH]cn1)NC(=O)[C@H](CSSC[C@H](N)C(=O)N[C@@H](Cc1ccc(O)cc1)C(=O)NCC(=O)N[C@@H](CCCNC(=N)N)C(=O)N[C@@H](CCCCN)C(=O)N[C@@H](CCCCN)C(=O)N[C@@H](CCCNC(=N)N)C(=O)N[C@@H](CCCNC(=N)N)C(=O)N[C@@H](CCC(N)=O)C(=O)N[C@@H](CCCNC(=N)N)C(=O)N[C@@H](CCCNC(=N)N)C(=O)N[C@@H](CCCNC(=N)N)C(N)=O)NC(C)=O)C(=O)NCC(=O)N[C@@H](Cc1ccc(O)cc1)C(=O)N[C@@H](CC(=O)O)C(N)=O [KAI-9706 carrier H—NH2 cargo Ac—NH2]
The remaining at 0.25 h of the first is higher: 90% for the first, 51% for the second.

Compared with CC[C@H](C)[C@H](NC(=O)[C@@H]1CCCN1C(=O)[C@H](C)NC(=O)[C@H](CC(=O)O)NC(=O)[C@H](Cc1c[nH]cn1)NC(=O)[C@@H](N)CSSC[C@H](NC(C)=O)C(=O)N[C@@H](Cc1ccc(O)cc1)C(=O)NCC(=O)N[C@@H](CCCNC(=N)N)C(=O)N[C@@H](CCCCN)C(=O)N[C@@H](CCCCN)C(=O)N[C@@H](CCCNC(=N)N)C(=O)N[C@@H](CCCNC(=N)N)C(=O)N[C@@H](CCC(N)=O)C(=O)N[C@@H](CCCNC(=N)N)C(=O)N[C@@H](CCCNC(=N)N)C(=O)N[C@@H](CCCNC(=N)N)C(N)=O)C(=O)NCC(=O)N[C@@H](Cc1ccc(O)cc1)C(=O)N[C@@H](CC(=O)O)C(=O)O [KAI-9706 carrier Ac—NH2 cargo H—OH], CC[C@H](C)[C@H](NC(=O)[C@@H]1CCCN1C(=O)[C@H](C)NC(=O)[C@H](CC(=O)O)NC(=O)[C@H](Cc1c[nH]cn1)NC(=O)[C@H](CSSC[C@H](N)C(=O)N[C@@H](Cc1ccc(O)cc1)C(=O)NCC(=O)N[C@@H](CCCNC(=N)N)C(=O)N[C@@H](CCCCN)C(=O)N[C@@H](CCCCN)C(=O)N[C@@H](CCCNC(=N)N)C(=O)N[C@@H](CCCNC(=N)N)C(=O)N[C@@H](CCC(N)=O)C(=O)N[C@@H](CCCNC(=N)N)C(=O)N[C@@H](CCCNC(=N)N)C(=O)N[C@@H](CCCNC(=N)N)C(=O)O)NC(C)=O)C(=O)NCC(=O)N[C@@H](Cc1ccc(O)cc1)C(=O)N[C@@H](CC(=O)O)C(N)=O [KAI-9706 carrier H—OH cargo Ac—NH2] is lower in remaining at 0.25 h: 92% for the first, 0% for the second.

First: CC[C@H](C)[C@H](NC(=O)[C@@H]1CCCN1C(=O)[C@H](C)NC(=O)[C@H](CC(=O)O)NC(=O)[C@H](Cc1c[nH]cn1)NC(=O)[C@H](CSSC[C@H](NC(C)=O)C(=O)N[C@@H](Cc1ccc(O)cc1)C(=O)NCC(=O)N[C@@H](CCCNC(=N)N)C(=O)N[C@@H](CCCCN)C(=O)N[C@@H](CCCCN)C(=O)N[C@@H](CCCNC(=N)N)C(=O)N[C@@H](CCCNC(=N)N)C(=O)N[C@@H](CCC(N)=O)C(=O)N[C@@H](CCCNC(=N)N)C(=O)N[C@@H](CCCNC(=N)N)C(=O)N[C@@H](CCCNC(=N)N)C(=O)O)NC(C)=O)C(=O)NCC(=O)N[C@@H](Cc1ccc(O)cc1)C(=O)N[C@@H](CC(=O)O)C(N)=O [KAI-9706 carrier Ac—OH cargo Ac—NH2]
Second: CC[C@H](C)[C@H](NC(=O)[C@@H]1CCCN1C(=O)[C@H](C)NC(=O)[C@H](CC(=O)O)NC(=O)[C@H](Cc1c[nH]cn1)NC(=O)[C@@H](N)CSSC[C@H](NC(C)=O)C(=O)N[C@@H](Cc1ccc(O)cc1)C(=O)NCC(=O)N[C@@H](CCCNC(=N)N)C(=O)N[C@@H](CCCCN)C(=O)N[C@@H](CCCCN)C(=O)N[C@@H](CCCNC(=N)N)C(=O)N[C@@H](CCCNC(=N)N)C(=O)N[C@@H](CCC(N)=O)C(=O)N[C@@H](CCCNC(=N)N)C(=O)N[C@@H](CCCNC(=N)N)C(=O)N[C@@H](CCCNC(=N)N)C(=O)O)C(=O)NCC(=O)N[C@@H](Cc1ccc(O)cc1)C(=O)N[C@@H](CC(=O)O)C(=O)O [KAI-9706 carrier Ac—OH cargo H—OH]
The remaining at 0.25 h of the first is lower: 48% for the first, 57% for the second.

Going from CC[C@H](C)[C@H](NC(=O)[C@@H]1CCCN1C(=O)[C@H](C)NC(=O)[C@H](CC(=O)O)NC(=O)[C@H](Cc1c[nH]cn1)NC(=O)[C@@H](N)CSSC[C@H](N)C(=O)N[C@@H](Cc1ccc(O)cc1)C(=O)NCC(=O)N[C@@H](CCCNC(=N)N)C(=O)N[C@@H](CCCCN)C(=O)N[C@@H](CCCCN)C(=O)N[C@@H](CCCNC(=N)N)C(=O)N[C@@H](CCCNC(=N)N)C(=O)N[C@@H](CCC(N)=O)C(=O)N[C@@H](CCCNC(=N)N)C(=O)N[C@@H](CCCNC(=N)N)C(=O)N[C@@H](CCCNC(=N)N)C(N)=O)C(=O)NCC(=O)N[C@@H](Cc1ccc(O)cc1)C(=O)N[C@@H](CC(=O)O)C(=O)O [KAI-9706 carrier H—NH2 cargo H—OH] to CC[C@H](C)[C@H](NC(=O)[C@@H]1CCCN1C(=O)[C@H](C)NC(=O)[C@H](CC(=O)O)NC(=O)[C@H](Cc1c[nH]cn1)NC(=O)[C@@H](N)CSSC[C@H](N)C(=O)N[C@@H](Cc1ccc(O)cc1)C(=O)NCC(=O)N[C@@H](CCCNC(=N)N)C(=O)N[C@@H](CCCCN)C(=O)N[C@@H](CCCCN)C(=O)N[C@@H](CCCNC(=N)N)C(=O)N[C@@H](CCCNC(=N)N)C(=O)N[C@@H](CCC(N)=O)C(=O)N[C@@H](CCCNC(=N)N)C(=O)N[C@@H](CCCNC(=N)N)C(=O)N[C@@H](CCCNC(=N)N)C(=O)O)C(=O)NCC(=O)N[C@@H](Cc1ccc(O)cc1)C(=O)N[C@@H](CC(=O)O)C(N)=O [KAI-9706 carrier H—OH cargo H—NH2], the remaining at 0.25 h falls from 60% to 0%.

CC[C@H](C)[C@H](NC(=O)[C@@H]1CCCN1C(=O)[C@H](C)NC(=O)[C@H](CC(=O)O)NC(=O)[C@H](Cc1c[nH]cn1)NC(=O)[C@H](CSSC[C@H](N)C(=O)N[C@@H](Cc1ccc(O)cc1)C(=O)NCC(=O)N[C@@H](CCCNC(=N)N)C(=O)N[C@@H](CCCCN)C(=O)N[C@@H](CCCCN)C(=O)N[C@@H](CCCNC(=N)N)C(=O)N[C@@H](CCCNC(=N)N)C(=O)N[C@@H](CCC(N)=O)C(=O)N[C@@H](CCCNC(=N)N)C(=O)N[C@@H](CCCNC(=N)N)C(=O)N[C@@H](CCCNC(=N)N)C(=O)O)NC(C)=O)C(=O)NCC(=O)N[C@@H](Cc1ccc(O)cc1)C(=O)N[C@@H](CC(=O)O)C(=O)O [KAI-9706 carrier H—OH cargo Ac—OH] gave a remaining at 0.25 h of 1%.
